The text below walks through data of patent publication US20080280890A1, “HYDROXYLAMINE COMPOUNDS AND METHODS OF THEIR USE” (priority 2007, published 2008).

Counter-ions that a name gives are not always drawn.

Experiment [1] relates to Angiogenesis in CAM model. As to the kind of experiment: Neovascularization on the CAM (chick chorioallantoic membrane model of angiogenesis). The note with it: for Percent inhibition of angiogenesis in CAM model at 30 ug: unit assumed. In kind it is in vivo, chicken. As to the method:
In vivo neovascularization was examined by the method previously described by Auerbach et al. (J. Dev. Biol. 41:391-394 (1974)). Ten-day old chicken embryos were purchased from Spafas, Inc. (Preston, Conn.) and were incubated at 37° C. with 55% relative humidity. In the dark, with the aid of a candling lamp, a small hole was punctured in the shell concealing the air sac with a hypodermic needle. A second hole was punctured in the shell on the broadside of the egg directly over an […] portion of the embryonic membrane, as observed during candling. An artificial air sac was created beneath the second hole by applying gentle vacuum to the first hole using a small rubber squeeze bulb. The vacuum caused the chorioallantoic membrane (CAM) to separate from the shell.
A window, approximately 1.0 cm^2, was cut in the shell over the dropped CAM with the use of a small crafts grinding wheel (Dremel, Division of Emerson Electric Company Racine, Wis.). The window allowed direct access to the underlying CAM.
A pro-angiogenic agent was added to induce new blood vessel branches on the CAM of 10-day old embryos. Filter disks of #1 filter paper (Whatman International, United Kingdom) were punched using a small puncher and were soaked in 3 mg/mL cortisone acetate (Sigma, St. Louis, Mo.) in a solution (95% ethanol and water). The disks were subsequently air dried under sterile conditions. The disks were then suspended in PBS (Phosphate Buffered Saline) and placed on growing CAMs. Filters treated with TP-H (TEMPOL-H) or TEMPOL and/or H2O2 or TP-H and/or bFGF or VEGF were placed on the first day of the 3-day incubation.
For inducing angiogenesis, sterile filter disks were saturated with bFGF (1 μg/ml) (Life Technologies, Gaithersburg, Md.) or other pro-angiogenesis factors and control disks were saturated with PBS without Calcium and Magnesium. […]
Using sterile forceps one filter/CAM was placed from the window. The window was sealed with Highland brand transparent tape.
After 24-48 hr, 10-25 ul of test agent was injected intravenously or added topically into the CAM membrane. Eight-Ten eggs/treatment group were used.
CAM tissue directly beneath filter disk was harvested from embryos treated 48 hours prior with compound or control. Tissues were washed three times with PBS. Sections were placed in a 35-mm petri dish (Nalge Nunc, Rochester, N.Y.) and examined under a SV6 stereomicroscope (Karl Zeiss, Thornwood, N.Y.) at 50× magnification.
CAM sections from Petri dish were examined using SV6 stereomicroscope (Karl Zeiss) at 50× magnification. Digital images of CAM sections from Petri dish were collected using a 3-CCD color video camera system (Toshiba America, New York, N.Y.). These images were analyzed using Image-Pro Plus software (Media Cybernetics, Silver Spring, Md.).
The number of branch points in blood vessels within the circular region superimposed to the area of a filter disk was counted for each section. After incubation at 37° C. with 55% relative humidity for 3 days, the CAM tissue directly beneath each filter disk was resected from control and treated CAM samples. Tissues were washed three times with PBS. Sections were placed in a 35-mm Petri dish (Nalge Nunc; Rochester, N.Y.) and were examined under a SV6 stereomicroscope (Karl Zeiss; Thornwood, N.Y.) at 50× magnification. Digital images of CAM sections adjacent to filters were collected using a 3-CCD color video camera system (Toshiba America; New York, N.Y.) and analyzed with the Image-Pro Plus software (Media Cybernetics; Silver Spring, Md.).
The number of vessel branch points contained in a circular region equal to the area of a filter disk was counted for each section. Percent inhibition data are expressed as the quotient of the experimental value minus the negative control value divided by the difference between the positive control value and the negative control value. […]

The subject of experiment [2] is Human neuroblastoma SKN-SH cells, resistant to doxorubicin. As to the kind of experiment: Chemoresistance: cancer cell viability (MTT) in presence or absence of doxorubicin. The class given is cell-based. The conditions noted are these: compound 50 ug/mL, MTT. The text has this: A method for evaluating a compound's propensity to overcome cancer cell chemoresistance is described in “Caspase Inhibition Switches Doxorubicin-Induced Apoptosis To Senescence”, Abdelhadi Rebbaa, Xin Zheng, Pauline M Chou and Bernard L Mirkin, Oncogene (2003) 22, 2805-2811. Resistant human cancer cells to doxorubicin were selected by stepwise exposure to drug concentrations ranging from 10^−9 M-10^−6 M over 3 months. They were then subjected to treatment with the doxorubicin alone or in combination with hydroxylamine compounds 1-12, 16, 20, and 21 (Table 4). The cells were incubated with the drugs for 72 hours, and cell viability was measured by the MTT assay. Additionally, molecular pathways that might be associated with increased chemo-responsiveness with these compounds were investigated. p Cancer Cell Viability Data for certain hydroxylamines in the presence or absence of Doxorubicin is listed in Table 4.
A method for evaluating a compound's propensity to overcome cancer cell chemoresistance is described in “Caspase Inhibition Switches Doxorubicin-Induced Apoptosis To Senescence”, Abdelhadi Rebbaa, Xin Zheng, Pauline M Chou and Bernard L Mirkin, Oncogene (2003) 22, 2805-2811. Human neuroblastoma SKN-SH cells (ATCC Cat. No. HTB-11) were cultured in Dulbecco's Modified Eagles Medium (DMEM; Gibco, Grand Island, N.Y.) supplemented with 10% fetal bovine serum (FBS; Sigma-Aldrich, St. Louis, Mo.) at 37° C. in a 95% Air/5% CO2 atmosphere. Resistant human cancer cells to doxorubicin were selected by stepwise exposure to drug concentrations ranging from 10^−9M-10^−6M over 3 months. They were then subjected to treatment with the doxorubicin alone or in combination with hydroxylamine compounds. The cells were incubated with the drugs for 72 hours, and cell viability was measured by the MTT assay. This consists of adding 10 μl/well of MTT (5 mg/ml solution) and incubation for 4 h at 37° C. The precipitate formed is then solubilized by addition of 100 μl of HCL 0.5 N/Isopropanol and incubation for 15 hours at 37° C. The optical density is measured at 570 nm and cell survival is estimated by comparison to untreated cells. Each point represents 4 wells data represent average ± SE. Additionally, molecular pathways that might be associated with increased chemo-responsiveness with these compounds were investigated.
Cytotoxic activity of doxorubicin and hydroxylamine analogs were quantitatively determined by a colorimetric assay utilizing 3-(4,5-dimethyl-2-thiazolyl) 2,5-diphenyl tetrazolium bromide (MTT; Sigma-Aldrich, St. Louis, Mo.). Briefly, cells were seeded at 10^4 cells/well in 96-well plates and maintained in culture for 24 hours at 37° C. in DMEM supplemented with 10% FBS. Drugs were added to designated wells and cells were incubated for […], following which MTT (10 μL of 5 mg/ml solution) was added to each 100 μl well and incubated for 4 hours at 37° C. The cells were solubilized by incubation with 100 μl of HCl 0.5N in isopropanol for 15 hours at 37° C. The optical density of this solution was measured at 570 nm and the percentage of viable cells estimated by comparison with untreated control cells.

One may read the inhibition in vivo as the change of the read-out against control, counted positive when it falls. A high value points to a strong effect.

In the case of “1-Hydroxy-4-(4-Flurophenyl)-2,2,6,6-tetramethylpiperidine [Compound 62]”, in experiment [1] (30 ug), the Percent inhibition of angiogenesis in CAM model at 30 ug is 43.8%. For the same compound, the “Mean OD (×10^−3), cancer cell viability” value is on record as 40.25 ×10^−3 in experiment [2] (Dox. 10^−6 M present (+)) and 184.75 ×10^−3 in experiment [2] (Dox. absent (−)).

As for `CC1(C)C=C(CO)C(C)(C)N1O` [Compound 8], the Percent inhibition of angiogenesis in CAM model at 30 ug in experiment [1] (30 ug) came out at 88%. The “Mean OD (×10^−3), cancer cell viability” value is reported as 197.25 ×10^−3 in experiment [2] (Dox. 10^−6 M present (+)) and 392.50 ×10^−3 in experiment [2] (Dox. absent (−)).

Take `CC1(C)CC(Oc2nsnc2Cl)CC(C)(C)N1O.Cl` [Compound 13, 4-(4-chloro-1,2,5-thiadiazol-3-yloxyl)-1-hydroxyl-2,2,6,6-tetramethylpiperidine]: the Percent inhibition of angiogenesis in CAM model at 30 ug in experiment [1] (30 ug) was found to be 51.2%.

`CC1(C)CC(NC(=O)CCN2CCOCC2)CC(C)(C)N1O.Cl` [Compound 26, N-(1-hydroxy-2,2,6,6-tetramethylpiperidin-4-yl)-3-morpholinopropanamide]: the Percent inhibition of angiogenesis in CAM model at 30 ug in experiment [1] (30 ug) worked out at 72%. Besides, the “Mean OD (×10^−3), cancer cell viability” value in experiment [2] (Dox. 10^−6 M present (+)) is on record as 261.50 ×10^−3; in experiment [2] (Dox. absent (−)) it was 1056.33 ×10^−3.

`CC1(C)CC(c2nn[nH]n2)CC(C)(C)N1O.Cl` [Compound 30, 1-hydroxy-2,2,6,6-tetramethyl-4-(2H-tetrazol-5-yl)piperidine]: in experiment [1] (30 ug), the Percent inhibition of angiogenesis in CAM model at 30 ug amounted to 90.4%. Besides, the “Mean OD (×10^−3), cancer cell viability” value in experiment [2] (Dox. 10^−6 M present (+)) is recorded as 310.00 ×10^−3; in experiment [2] (Dox. absent (−)) it was 1301.25 ×10^−3.

As for `CC1(C)CC(NC(=O)C2CC2)CC(C)(C)N1O.Cl` [Compound 31, N-(1-hydroxy-2,2,6,6-tetramethylpiperidin-4-yl)cyclopropanecarboxamide], the Percent inhibition of angiogenesis in CAM model at 30 ug in experiment [1] (30 ug) worked out at 38.8%. For the same compound, the “Mean OD (×10^−3), cancer cell viability” value in experiment [2] (Dox. 10^−6 M present (+)) is 322.25 ×10^−3; in experiment [2] (Dox. absent (−)) it was 1175.25 ×10^−3.

With `CC1(C)CC(Oc2nsnc2N2CCOCC2)C(C)(C)N1O.Cl` (centres unmarked) [Compound 32, 4-(4-(1-hydroxy-2,2,5,5-tetramethylpyrrolidin-3-yloxy)-1,2,5-thiadiazol-3-yl)morpholine], the “Mean OD (×10^−3), cancer cell viability” value is listed as 231.50 ×10^−3 in experiment [2] (Dox. 10^−6 M present (+)) and 985.67 ×10^−3 in experiment [2] (Dox. absent (−)).

`CC1(C)CC(CO)CC(C)(C)N1O.Cl` [Compound 34, (1-hydroxy-2,2,6,6-tetramethylpiperidin-4-yl)methanol]: the figures for the “Mean OD (×10^−3), cancer cell viability” value in experiment [2] (Dox. 10^−6 M present (+)) and in experiment [2] (Dox. absent (−)) were 302.75 ×10^−3 and 1168.25 ×10^−3, respectively.

In the case of `CC1(C)C=C(CC2CNCCO2)C(C)(C)N1O.Cl.Cl` (centres unmarked) [Compound 36], the “Mean OD (×10^−3), cancer cell viability” value in experiment [2] (Dox. 10^−6 M present (+)) was 297.00 ×10^−3; in experiment [2] (Dox. absent (−)), 1110.75 ×10^−3.

For `CC1(C)CC(=O)C(C)(C)N1O.Cl` [Compound 37, 1-hydroxy-2,2,5,5-tetramethylpyrrolidin-3-one], the “Mean OD (×10^−3), cancer cell viability” value in experiment [2] (Dox. 10^−6 M present (+)) is 366.25 ×10^−3; in experiment [2] (Dox. absent (−)), 1329.75 ×10^−3.

Consider `CC1(C)CC(NC(=O)C2CC2)C(C)(C)N1O.Cl` (centres unmarked) [Compound 38, N-(1-hydroxy-2,2,5,5-tetramethylpyrrolidin-3-yl)cyclopropanecarboxamide], for which the figures for the “Mean OD (×10^−3), cancer cell viability” value in experiment [2] (Dox. 10^−6 M present (+)) and in experiment [2] (Dox. absent (−)) were 378.50 ×10^−3 and 1202.75 ×10^−3, respectively.

Turning to `COc1ccc(C2=C(c3cc(OC)c(OC)c(OC)c3)C(C)(C)N(O)C2(C)C)cc1C=O` [Compound 46, 5-(2,5,-dihydro-4-(3,4,5-trimethoxyphenyl)-1-hydroxy-2,2,5,5-tetramethyl-1H-pyrrol-3-yl)-2-methoxybenzaldehyde], in experiment [1] (30 ug), the Percent inhibition of angiogenesis in CAM model at 30 ug came to 45.1%. Besides, the “Mean OD (×10^−3), cancer cell viability” value was 32.75 ×10^−3 in experiment [2] (Dox. 10^−6 M present (+)) and 79.00 ×10^−3 in experiment [2] (Dox. absent (−)).

With `COc1cc(COC2CC(C)(C)N(O)C(C)(C)C2)cc(OC)c1OC.Cl` [Compound 48, 1-Hydroxyl-4-(3,4,5-trimethoxybenzyloxy)-2,2,6,6-tetramethylpiperidine], the “Mean OD (×10^−3), cancer cell viability” value in experiment [2] (Dox. 10^−6 M present (+)) was 50.67 ×10^−3; in experiment [2] (Dox. absent (−)), 1118.00 ×10^−3.

For `CC1(C)CC(NC(=O)CCCCC2CCSS2)CC(C)(C)N1O` (centres unmarked) [Compound 49, 5-(1,2-dithialan-3-yl)-N-(1-hydroxy-2,2,6,6-tetramethylpiperidin-4-yl)pentanamide], the entries for the “Mean OD (×10^−3), cancer cell viability” value in experiment [2] (Dox. 10^−6 M present (+)) and in experiment [2] (Dox. absent (−)) were 195.00 ×10^−3 and 1330.25 ×10^−3, respectively.

`COc1cc(C2=CC(C)(C)N(O)C(C)(C)C2)cc(OC)c1OC.Cl` [Compound 50, 1-Hydroxy-2,3,6-trihydro-4-(3,4,5-trimethoxyphenyl)-2,2,6,6-tetramethylpiperidine] yielded a Percent inhibition of angiogenesis in CAM model at 30 ug in experiment [1] (30 ug) of 92.3%. Also, the “Mean OD (×10^−3), cancer cell viability” value in experiment [2] (Dox. 10^−6 M present (+)) is on record as 54.50 ×10^−3; in experiment [2] (Dox. absent (−)), 1226.33 ×10^−3.

`CC1(C)CC(Oc2nsnc2N2CCN(c3ccccc3)CC2)CC(C)(C)N1O.Cl.Cl` [Compound 53, 4-(4-phenylpiperazin-1-yl)-3-[(2,2,6,6-tetramethyl-1-hydroxypiperidinyl)-4-oxy]-1,2,5-thiadiazole]: the “Mean OD (×10^−3), cancer cell viability” value in experiment [2] (Dox. 10^−6 M present (+)) is listed as 170.00 ×10^−3; in experiment [2] (Dox. absent (−)) it was 1333.75 ×10^−3.

In experiment [1] (Gallus gallus, 30 ug), `CC1(C)CC(O)CC(C)(C)N1O` [TEMPOL-H HCl, 2,2,6,6-tetramethylpiperidine-1,4-diol, reference compound] came in with an inhibition in vivo at 0.03 mg of 43 ± 10%.

In the case of `O=C1O[C@H]([C@@H](O)CO)C(O)=C1O` [Vitamin C, reference compound], in experiment [1] (Gallus gallus, 300 ug), the inhibition in vivo at 0.3 mg amounted to 15 ± 7%.

For Vitamin E [reference compound], the “CAM data % Inhibition” value in experiment [1] (300 ug) came out at 22 ± 6%.
